Values after ≈ are worked out from the molar mass of the structure shown.
Experiments:
[1] = test system: Pseudomonas aeruginosa PAO1-Xen41; assay: Hill coefficient of concentration-effect curve (unitless); higher = steeper concentration-effect curve
Method: (§1)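 Time-kill assays of bioluminescent P. aeruginosa PAO1-Xen41 (start ~5e6 CFU/mL) in 96-well plates at 37 °C, 150 rpm. Luminescence was read hourly for 20 h in cation-adjusted Mueller-Hinton broth, either non-conditioned (MH broth with or without supplements) or conditioned by one of 13 CF-associated species, then filter-sterilised and nutrient-replenished. Growth/kill rates came from log-linear regression of the exponential phase at 9-10 antibiotic concentrations, and Hill (Emax) models were fitted with drc for each replicate.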

[2] = test system: Pseudomonas aeruginosa PAO1-Xen41; assay: EC50 of growth/kill rate concentration-effect curve
Method: as §1

[3] = test system: Pseudomonas aeruginosa PAO1-Xen41; assay: Emax, maximal drug effect on net growth rate (fitted lower asymptote) (per hour (slope of log luminescence)); higher = weaker maximal killing (less negative)
Method: as §1

C[C@@H](O)[C@H]1C(=O)N2C(C(=O)O)=C(S[C@@H]3CN[C@H](C(=O)N(C)C)C3)[C@H](C)[C@H]12 [meropenem]
Details | EC50, [2] [µg/mL] | Emax, [3] | Hill coefficient, [1]
medium (conditioned by secondary species or non-conditioned control): A. baumannii | 2.68 (≈ 6.99 µM) | -0.0771 | 6.64
medium (conditioned by secondary species or non-conditioned control): A. fumigatus | 0.389 (≈ 1.01 µM) | -0.093 | 7.42
medium (conditioned by secondary species or non-conditioned control): A. xylosoxidans | 1.25 (≈ 3.26 µM) | -0.0831 | 4.28
medium (conditioned by secondary species or non-conditioned control): B. cepacia | 0.916 (≈ 2.39 µM) | -0.0593 | 12.1
medium (conditioned by secondary species or non-conditioned control): C. albicans | 0.784 (≈ 2.04 µM) | -0.12 | 3.15
medium (conditioned by secondary species or non-conditioned control): H. influenzae | 0.6259 (≈ 1.63 µM) | -0.172 | 2.15
medium (conditioned by secondary species or non-conditioned control): M. abcessus | 0.609 (≈ 1.59 µM) | -0.0816 | 5.75
medium (conditioned by secondary species or non-conditioned control): M. avium | 0.337 (≈ 0.878 µM) | -0.0509 | 7.81
medium (conditioned by secondary species or non-conditioned control): M. catarrhalis | 1.91 (≈ 4.99 µM) | -0.0746 | 6.15
medium (conditioned by secondary species or non-conditioned control): MH broth | 0.612 (≈ 1.6 µM) | -0.0947 | 4.27
medium (conditioned by secondary species or non-conditioned control): MH broth + ADC | 0.2684 | -0.0675 | 15.3
medium (conditioned by secondary species or non-conditioned control): MH broth + LHB + NAD | 0.663 | -0.125 | 3.73
medium (conditioned by secondary species or non-conditioned control): MH broth + glucose | 0.628 | -0.0923 | 3
medium (conditioned by secondary species or non-conditioned control): R. mannitolilytica | 0.6203 (≈ 1.62 µM) | -0.0818 | 8.16
medium (conditioned by secondary species or non-conditioned control): S. aureus | 0.7071 (≈ 1.84 µM) | -0.0714 | 10
medium (conditioned by secondary species or non-conditioned control): S. maltophilia | 1.18 (≈ 3.07 µM) | -0.0918 | 3.29
medium (conditioned by secondary species or non-conditioned control): S. pneumoniae | 0.938 (≈ 2.45 µM) | -0.189 | 4.34

CN(C)c1ccc(O)c2c1C[C@H]1C[C@H]3[C@H](N(C)C)C(O)=C(C(N)=O)C(=O)[C@@]3(O)C(O)=C1C2=O [minocycline]
Details | EC50, [2] [µg/mL] | Emax, [3] | Hill coefficient, [1]
medium (conditioned by secondary species or non-conditioned control): A. baumannii | 41.5 (≈ 90.7 µM) | -0.0946 | 3.37
medium (conditioned by secondary species or non-conditioned control): A. fumigatus | 4.51 (≈ 9.87 µM) | -0.12 | 5.95
medium (conditioned by secondary species or non-conditioned control): A. xylosoxidans | 29.9 (≈ 65.4 µM) | -0.193 | 6.19
medium (conditioned by secondary species or non-conditioned control): B. cepacia | 65.8 (≈ 144 µM) | -0.464 | 1.13
medium (conditioned by secondary species or non-conditioned control): C. albicans | 7.19 (≈ 15.7 µM) | -0.223 | 5.63
medium (conditioned by secondary species or non-conditioned control): H. influenzae | 9.75 (≈ 21.3 µM) | -0.198 | 1.67
medium (conditioned by secondary species or non-conditioned control): M. abcessus | 81 (≈ 177 µM) | -0.72 | 0.784
medium (conditioned by secondary species or non-conditioned control): M. avium | 6.33 (≈ 13.8 µM) | -0.13 | 5.77
medium (conditioned by secondary species or non-conditioned control): M. catarrhalis | 21.1 (≈ 46.2 µM) | -0.0725 | 3.92
medium (conditioned by secondary species or non-conditioned control): MH broth | 18.7 (≈ 40.9 µM) | -0.41 | 1.16
medium (conditioned by secondary species or non-conditioned control): MH broth + ADC | 3.939 | -0.071 | 15
medium (conditioned by secondary species or non-conditioned control): MH broth + LHB + NAD | 8.7 | -0.184 | 1.74
medium (conditioned by secondary species or non-conditioned control): MH broth + glucose | 19.7 | -0.432 | 1.2
medium (conditioned by secondary species or non-conditioned control): R. mannitolilytica | 72.8 (≈ 159 µM) | -0.649 | 0.909
medium (conditioned by secondary species or non-conditioned control): S. aureus | 87.8 (≈ 192 µM) | -0.776 | 0.785
medium (conditioned by secondary species or non-conditioned control): S. maltophilia | 81 (≈ 177 µM) | -0.713 | 0.781
medium (conditioned by secondary species or non-conditioned control): S. pneumoniae | 4.82 (≈ 10.5 µM) | -0.0595 | 2.06

CO[C@H]1/C=C/O[C@@]2(C)Oc3c(C)c(O)c4c(O)c(c(/C=N/N5CCN(C)CC5)c(O)c4c3C2=O)NC(=O)/C(C)=C\C=C\[C@H](C)[C@H](O)[C@@H](C)[C@@H](O)[C@@H](C)[C@H](OC(C)=O)[C@@H]1C [rifampicin]
Details | EC50, [2] [µg/mL] | Emax, [3] | Hill coefficient, [1]
medium (conditioned by secondary species or non-conditioned control): A. baumannii | 58.4 (≈ 71 µM) | -0.428 | 2.64
medium (conditioned by secondary species or non-conditioned control): A. fumigatus | 16.6 (≈ 20.2 µM) | -0.427 | 1.865
medium (conditioned by secondary species or non-conditioned control): A. xylosoxidans | 60.8 (≈ 73.9 µM) | -0.447 | 3.63
medium (conditioned by secondary species or non-conditioned control): B. cepacia | 53.9 (≈ 65.4 µM) | -0.4437 | 4.03
medium (conditioned by secondary species or non-conditioned control): C. albicans | 26.5 (≈ 32.2 µM) | -0.543 | 2.68
medium (conditioned by secondary species or non-conditioned control): H. influenzae | 18.7 (≈ 22.7 µM) | -0.165 | 5.03
medium (conditioned by secondary species or non-conditioned control): M. abcessus | 43.2 (≈ 52.5 µM) | -0.468 | 2.15
medium (conditioned by secondary species or non-conditioned control): M. avium | 72 (≈ 87.5 µM) | -1.04 | 0.999
medium (conditioned by secondary species or non-conditioned control): M. catarrhalis | 58.7 (≈ 71.4 µM) | -0.151 | 2.74
medium (conditioned by secondary species or non-conditioned control): MH broth | 31.7 (≈ 38.5 µM) | -0.425 | 2.61
medium (conditioned by secondary species or non-conditioned control): MH broth + ADC | 83.3 | -1.1 | 0.89
medium (conditioned by secondary species or non-conditioned control): MH broth + LHB + NAD | 25.2 | -0.141 | 3.8
medium (conditioned by secondary species or non-conditioned control): MH broth + glucose | 26.7 | -0.552 | 2.46
medium (conditioned by secondary species or non-conditioned control): R. mannitolilytica | 40.4 (≈ 49 µM) | -0.4494 | 5.28
medium (conditioned by secondary species or non-conditioned control): S. aureus | 43.6 (≈ 53 µM) | -0.461 | 2.1
medium (conditioned by secondary species or non-conditioned control): S. maltophilia | 51.8 (≈ 62.9 µM) | -0.437 | 3.3
medium (conditioned by secondary species or non-conditioned control): S. pneumoniae | 20.8 (≈ 25.3 µM) | -0.142 | 4.69

NC[C@H]1O[C@H](O[C@H]2[C@H](O)[C@@H](O[C@H]3O[C@H](CO)[C@@H](O)[C@H](N)[C@H]3O)[C@H](N)C[C@@H]2N)[C@H](N)C[C@@H]1O [tobramycin]
Details | EC50, [2] [µg/mL] | Emax, [3] | Hill coefficient, [1]
medium (conditioned by secondary species or non-conditioned control): A. baumannii | 0.257 (≈ 0.55 µM) | -0.121 | 16.7
medium (conditioned by secondary species or non-conditioned control): A. fumigatus | 0.7033 (≈ 1.5 µM) | -0.188 | 4.28
medium (conditioned by secondary species or non-conditioned control): A. xylosoxidans | 0.2759 (≈ 0.59 µM) | -0.157 | 14.8
medium (conditioned by secondary species or non-conditioned control): B. cepacia | 0.144 (≈ 0.308 µM) | -0.131 | 10.6
medium (conditioned by secondary species or non-conditioned control): C. albicans | 0.565 (≈ 1.21 µM) | -0.214 | 3.52
medium (conditioned by secondary species or non-conditioned control): H. influenzae | 0.185 (≈ 0.397 µM) | -0.126 | 14.4
medium (conditioned by secondary species or non-conditioned control): M. abcessus | 0.135 (≈ 0.288 µM) | -0.095 | 4.76
medium (conditioned by secondary species or non-conditioned control): M. avium | 0.201 (≈ 0.429 µM) | -0.17 | 9.2
medium (conditioned by secondary species or non-conditioned control): M. catarrhalis | 0.145 (≈ 0.31 µM) | -0.134 | 9.95
medium (conditioned by secondary species or non-conditioned control): MH broth | 0.136 (≈ 0.29 µM) | -0.122 | 5.72
medium (conditioned by secondary species or non-conditioned control): MH broth + ADC | 0.197 | -0.172 | 11.3
medium (conditioned by secondary species or non-conditioned control): MH broth + LHB + NAD | 0.138 | -0.116 | 10.7
medium (conditioned by secondary species or non-conditioned control): MH broth + glucose | 0.393 | -0.21 | 3.39
medium (conditioned by secondary species or non-conditioned control): R. mannitolilytica | 0.0784 (≈ 0.168 µM) | -0.107 | 8.12
medium (conditioned by secondary species or non-conditioned control): S. aureus | 0.0695 (≈ 0.149 µM) | -0.121 | 10
medium (conditioned by secondary species or non-conditioned control): S. maltophilia | 0.137 (≈ 0.293 µM) | -0.197 | 6.76
medium (conditioned by secondary species or non-conditioned control): S. pneumoniae | 0.471 (≈ 1.01 µM) | -0.128 | 12.4
